Experimental findings from patent publication US7943646B2, “Benzamidine derivative, process for the preparation thereof and pharmaceutical composition comprising same” (Dong Wha Pharmaceutical Co., Ltd., priority 2006, dated 2011) are described below.

Read-outs that look alike come from different tables or passages of the source.

Data set [1] relates to osteoclast differentiation. The data set is described as follows: Inhibitory effect on osteoclast differentiation, co-culture of bone marrow cells and osteoblast, TRAP staining. Format: cell-based, mouse. Conditions: for inhibition at 1 µM: Mus musculus, Osteoclast, 168 h, read-out: inhibitory effect on osteoclast differentiation(%). Here is the method: The effect of the benzamidine derivative of the present invention on osteoclast formation and differentiation process was evaluated via co-culture with an osteoblast.
Tibia was aseptically ectomized from male 6 to 8-week-old ddY mice to harvest bone marrow cells by using a syringe (21G, Korea Green Cross). The bone marrow cells were suspended in 5 mL of an α-MEM medium (Gibco BRL Co., added with sodium bicarbonate (2.0 g/L), streptomycin (100 mg/L) and penicillin ([…]), filtered and then sterilized). The harvested cells were centrifuged at 600×g for 5 mins to collect the whole quantity. To remove the red blood cells in the bone marrow cells, 3 mL of Tris HCl (0.83% NH4Cl, pH 7.5) was added and well mixed. After centrifuging above cells, the numbers of the eukaryotic cells in the harvested bone marrow cells were counted and then immediately used for a co-culture system.
The progenitor bone and the parietal bone were aseptically ectomized from 1 to 2-day-old neonate ICR mice, washed with a phosphate butter solution (PBS) and treated with a mixed enzyme solution (of 0.2% collagenase and 0.1% dispase) sequentially (10, 10, 10, 20, 20 and 20 min), and then 3 to 6 groups of the cells which comprise lot of cells having the characteristics of the osteoblast were intensively collected and washed with a medium (a serum-free α-MEM). The washed cells were cultured in the α-MEM medium containing 10% FBS for 2 to 3 days. After subculturing, the collected cells were used for this experiment, and diluted to a concentration of 1×10^6 cells/mL for storage at −70[…].
The benzamidine derivative of the present invention was dissolved in a sterile distilled water or ethanol to dilute to a desired concentration. The final volume of the sample added to the cell culture medium was set at a ratio of 1:1000.
The bone marrow cells prepared in the above 1-1 and the osteoblast were co-cultured for osteoclast differentiation. Both the bone marrow cells (25,000 cells/cm^2) and the osteoblast (10,000 cells/cm^2) were plated in a 96-well plate using α-MEM medium containing FBS, and then cultured with the samples to be tested for 7 days. Differentiation factors, such as dexamethasone (10^−7 M) and vitamin D3 (10^−8 M), were also co-added to the medium from the first day of cultivation. The medium was changed with a fresh media containing a mixture of the samples and the differentiation factors every 2 to 3 days.
TRAP was used as a marker to measure the matured osteoclast in consideration of its characteristics showing a positive reaction to a TRAP staining solution. The TRAP staining solution was prepared in such the manner that 5 mg of naphtol AS-MS phosphate (sigma N-4875) as a substrate, and 25 mg of a coloring agent (Fast Red Violet LB salt) were dissolved in N,N-dimethylformamide (about 0.5 mL). 50 ml of a 0.1 N NaHCO3 buffer solution containing 50 mM tartaric acid (pH 5.0) was added thereto, and the mixture was stored at a refrigerator prior to use as a staining solution.
After culturing the cells for 7 days, the medium was removed from the wells, the cells were once washed with PBS, and then fixed with PBS containing 10% formalin for 2 to 5 min. The cells were fixed again in a mixed solution of ethanol and acetone (1/1) for about 1 min, and dried off. The cells were further treated by the TRAP staining solution for 15 mins and washed with water and dried off. The osteoclasts with 3 or more nuclei showing a TRAP-positive reaction were counted under a microscopic examination. Each of tests was confirmed over at least three times. The inhibitory effect on osteoclast differentiation of each experimental group, relative to negative controls, was expressed as a percentage (%).

The test system of a further data set is MC3T3. The data set is described as follows: Cytotoxicity test (MTT), MC3T3. The class given is cell-based. Conditions: 10^−6M, 72 hrs, in comparison with the control group. Here is the method:
(§1) The cytotoxic effect of the benzamidine derivative of the present invention was evaluated by carrying out the experiment described below.
(§2) The test substance was diluted in an appropriate solvent at a 10^−2 M concentration. This substance was diluted in an appropriate culture medium for the cells used in the cytotoxicity test to a concentration of […], and loaded into a 96-well plate in 100 μl per well. The cell lines to be used in the cytotoxicity test were plated on a 96-well plate in a dose of 1.0×10^4 cells/1OO μl per well and cultured for 72 hrs. 25 μl of MTT [3-(4,5-dimethyl-2-thiazolyl)-2,5-diphenyl-2H-tetrazolium bromide] dissolved in PBS (2 mg/mL) were added before 4 hrs of the end of culture. After completion of the reaction, the plates were centrifuged, the medium was discarded and 100 μl of DMSO was added to dissolve formazan. Finally, the absorbance of the developed plates was measured at 540 nm. The survival rates of the cells were expressed as % concentration values in comparison with the control group.

The test system of a further data set is HOS. The data set is described as follows: Cytotoxicity test (MTT), HOS. Format: cell-based. Particulars: 10^−6M, 72 hrs, in comparison with the control group. Here is the method:
as §1, §2

For a further data set, the system named is calvaria. The data set is described as follows: Cytotoxicity test (MTT), calvaria. Format: cell-based. Conditions: 10^−6M, 72 hrs, in comparison with the control group. Here is the method: as §1, §2
The mark [2] stands for this setting: 1 μm, 7 days co-culture, TRAP-positive osteoclasts with 3 or more nuclei, relative to negative controls.

With `CC(C)c1nc(-c2ccc(OCCCCCOc3ccc(C(=N)NO)cc3)cc2)c(CCNCCCn2ccnc2)s1` [Example 31, N-hydroxy-4-[5-(4-{5-[2-(3-imidazol-1-yl-propylamino)-ethyl]-2-isopropyl-thiazol-4-yl}-phenoxy)-pentyloxy]-benzamidine], in data set [1], the inhibition at 1 µM was 97%. On to `CC(C)c1nc(-c2ccc(OCCCCCOc3ccc(C(=N)NO)cc3)cc2)c(CCN2CCSCC2)s1` [Example 32, N-hydroxy-4-(5-{4-[2-isopropyl-5-(2-thiomorpholin-4-yl-ethyl)-thiazol-4-yl]-phenoxy}-pentyloxy)-benzamidine], for which the inhibition at 1 µM in data set [1] is 97%.

As to `CN1CCN(CCc2sc(C3CCCCC3)nc2-c2ccc(OCCCCCOc3ccc(C(=N)NO)cc3)cc2)CC1` [Example 34, N-hydroxy-4-[5-(4-{2-cyclohexyl-5-[2-(4-methyl-piperazin-1-yl)-ethyl]-thiazol-4-yl}-phenoxy)-pentyloxy]-benzamidine], the inhibition at 1 µM in data set [1] was determined as 100%. For `Cc1nc(-c2ccc(OCCCCOc3ccc(C(=N)NO)cc3)cc2)c(CCN2CCOCC2)s1` [Example 44, N-hydroxy-4-(4-{4-[2-methyl-5-(2-morpholin-4-yl-ethyl)-thiazol-4-yl]-phenoxy}-butoxy)-benzamidine], the “survival rates of the cells” value with MC3T3 is listed as 101.3%; in the data set with HOS, 105.6%; with calvaria, 90.6%. The like results for `N=C(N)c1ccc(OCCCCCOc2ccc(-c3nc(C4CCCCC4)sc3CCN3CCOCC3)cc2)cc1` [Example 45, 4-(5-{4-[2-cyclohexyl-5-(2-morpholin-4-yl-ethyl)-thiazol-4-yl]-phenoxy}-pentyloxy)-benzamidine] were, in that order, 108.2%, 106.9% and 90.5%. Consider `CNc1nc(-c2ccc(OCCCCCOc3ccc(C(=N)NO)cc3)cc2)c(CCN2CCN(C)CC2)s1` [Example 48, N-hydroxy-4-[5-(4-{2-methylamino-5-[2-(4-methyl-piperazin-1-yl)-ethyl]-thiazol-4-yl}-phenoxy)-pentyloxy]-benzamidine], for which the inhibition at 1 µM in data set [1] (setting [2]) is 60.6%. On the same count and under the same terms, with `CNc1nc(-c2ccc(OCCCCCOc3ccc(C(=N)NO)cc3)cc2)c(CCN2CCSCC2)s1` [Example 49, N-hydroxy-4-(5-{4-[2-methylamino-5-(2-thiomorpholin-4-yl-ethyl)-thiazol-4-yl]-phenoxy}-pentyloxy)-benzamidine] the figure was 84%. With `CNc1nc(-c2ccc(OCCCCCOc3ccc(C(=N)N)cc3)cc2)c(CCN2CCOCC2)s1` [Example 52, 4-(5-{4-[2-methylamino-5-(2-morpholin-4-yl-ethyl)-thiazol-4-yl]-phenoxy}-pentyloxy)-benzamidine], the “survival rates of the cells” value was determined as 115.6% in the data set on MC3T3, 98.8% in the data set with HOS and 100.1% in the data set with calvaria.

Turning to `CN(C)c1nc(-c2ccc(OCCCCCOc3ccc(C(=N)NO)cc3)cc2)c(CCN2CCSCC2)s1` [Example 54, N-hydroxy-4-(5-{4-[2-dimethylamino-5-(2-thiomorpholin-4-yl-ethyl)-thiazol-4-yl]-phenoxy}-pentyloxy)-benzamidine], the inhibition at 1 µM in data set [1] (setting [2]) was found to be 88%. On the same count and under the same terms, for `CC(C)C(=O)N(C)c1nc(-c2ccc(OCCCCCOc3ccc(C(=N)NO)cc3)cc2)c(CCN2CCOCC2)s1` [Example 55, N-hydroxy-4-(5-{4-[2-(isobutyryl-methyl-amino)-5-(2-morpholin-4-yl-ethyl)-thiazol-4-yl]-phenoxy}-pentyloxy)-benzamidine] the value was 69%; for `N=C(NO)c1ccc(OCCCCCOc2ccc(-c3nc(N4CCOCC4)sc3CCN3CCSCC3)cc2)cc1` [Example 60, N-hydroxy-4-(5-{4-[2-morpholin-4-yl-5-(2-thiomorpholin-4-yl-ethyl)-thiazol-4-yl]-phenoxy}-pentyloxy)-benzamidine], 88%. On the same count and under the same terms, for `CN1CCN(CCc2sc(N3CCOCC3)nc2-c2ccc(OCCCCCOc3ccc(C(=N)NO)cc3)cc2)CC1` [Example 61, N-hydroxy-4-[5-(4-{5-[2-(4-methyl-piperazin-1-yl)-ethyl]-2-morpholin-4-yl-thiazol-4-yl}-phenoxy)-pentyloxy]-benzamidine] the value was 76%. Take `N=C(N)c1ccc(OCCCCCOc2ccc(-c3nc(N4CCOCC4)sc3CCN3CCOCC3)cc2)cc1` [Example 64, 4-(5-{4-[2-morpholin-4-yl-5-(2-morpholin-4-yl-ethyl)-thiazol-4-yl]-phenoxy}-pentyloxy)-benzamidine]: the “survival rates of the cells” value in the data set with MC3T3 is 119.8%; with HOS it was 107.8%; in the data set on calvaria, 99.4%.

On to `Cc1nc(-c2ccc(OCCCCCOc3ccc(C(=N)NO)cc3)cc2)c(CCN(CC(C)C)C(=O)c2cccnc2)s1` [Example 66, N-hydroxy-4-{5-[4-(5-{2-[isobutyl-(pyridine-3-carbonyl)-amino]-ethyl}-2-methyl-thiazol-4-yl)-phenoxy]-pentyloxy}-benzamidine], for which the “survival rates of the cells” value in the data set with MC3T3 turned out to be 111.1%; in the data set on HOS, 105.9%; with calvaria it was 99.0%.

On to `CC(C)c1nc(-c2ccc(OCCCCCOc3ccc(C(=N)NO)cc3)cc2)c(CCN(C(=O)c2ccncc2)C2CC2)s1` [Example 67, N-hydroxy-4-{5-[4-(5-{2-[cyclopropyl-(pyridine-4-carbonyl)-amino]-ethyl}-2-isopropyl-thiazol-4-yl)-phenoxy]-pentyloxy}-benzamidine], for which the “survival rates of the cells” value in the data set with MC3T3 is reported as 80.7%; with HOS it was 97.5%; in the data set on calvaria, 95.3%. `CNC(=O)c1sc(C)nc1-c1ccc(OCCCCCOc2ccc(C(=N)NO)cc2)cc1` [Example 69]: the “inhibitory effect on osteoclast differentiation(%)” value in data set [1] (setting [2]) is recorded as 90.3%.

With `Cc1nc(-c2ccc(OCCCCCOc3ccc(C(=N)NO)cc3)cc2)c(C(=O)NC(C)C)s1` [Example 70, N-hydroxy-4-{5-[4-(5-isopropylcarbamoyl-2-methyl-thiazol-4-yl)-phenoxy]-pentyloxy}-benzamidine], the inhibition at 1 µM in data set [1] (setting [2]) was 84.8%.

On to `Cc1nc(-c2ccc(OCCCCCOc3ccc(C(=N)NO)cc3)cc2)c(C(=O)NCCCn2ccnc2)s1` [Example 71, N-hydroxy-4-{5-[4-(5-{3-imidazol-1-yl-propylcarbamoyl}-2-methyl-thiazol-4-yl)-phenoxy]-pentyloxy}-benzamidine], for which the inhibition at 1 µM in data set [1] (setting [2]) was 90.4%.

As to “N-hydroxy-(5-{4-[5-(2-isobutyrylamino-ethyl)-2-methyl-thiazol-4-yl]-phenoxy}-pentyloxy)-benzamidine [Example 65]”, the “inhibitory effect on osteoclast differentiation(%)” value in data set [1] (setting [2]) turned out to be 29%.
